Results as given in ChEMBL document CHEMBL1123605, “Renin inhibitors. Dipeptide analogues of angiotensinogen incorporating transition-state, nonpeptidic replacements at the scissile bond” (J Med Chem, 1987).
pIC50: −log10 of the molar value.

Key:
[1] = molecular target: T1, Cathepsin D (Bos taurus) (UniProt P80209); assay: Percentage inhibition against cathepsin D at 1.0x10E-5M
T1 sequence (whole entry): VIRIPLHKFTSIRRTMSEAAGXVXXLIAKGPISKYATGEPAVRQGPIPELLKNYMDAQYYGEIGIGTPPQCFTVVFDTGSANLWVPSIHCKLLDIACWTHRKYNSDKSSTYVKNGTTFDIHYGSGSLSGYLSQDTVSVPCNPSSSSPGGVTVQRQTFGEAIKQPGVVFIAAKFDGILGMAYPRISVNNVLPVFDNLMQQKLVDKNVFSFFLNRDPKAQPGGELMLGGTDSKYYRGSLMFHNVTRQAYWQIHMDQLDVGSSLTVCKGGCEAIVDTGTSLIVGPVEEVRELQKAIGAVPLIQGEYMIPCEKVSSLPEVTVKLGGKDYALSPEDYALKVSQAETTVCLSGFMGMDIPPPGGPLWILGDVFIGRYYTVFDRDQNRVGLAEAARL

[2] = molecular target: T2, Renin (Rattus norvegicus) (UniProt P08424); assay: Percentage inhibition against rat plasma renin; format: cell-free; conditions: concentration not given here
T2 sequence (whole entry): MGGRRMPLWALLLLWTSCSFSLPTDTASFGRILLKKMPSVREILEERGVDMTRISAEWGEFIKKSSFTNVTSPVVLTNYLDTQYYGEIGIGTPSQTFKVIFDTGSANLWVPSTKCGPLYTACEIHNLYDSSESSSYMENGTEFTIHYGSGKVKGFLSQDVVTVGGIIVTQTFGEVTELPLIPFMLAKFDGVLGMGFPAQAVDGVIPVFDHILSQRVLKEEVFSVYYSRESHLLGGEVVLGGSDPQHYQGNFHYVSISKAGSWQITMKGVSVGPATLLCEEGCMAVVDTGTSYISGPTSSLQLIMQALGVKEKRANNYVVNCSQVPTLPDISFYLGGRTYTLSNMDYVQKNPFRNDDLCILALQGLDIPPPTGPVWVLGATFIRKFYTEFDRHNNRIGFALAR

[3] = molecular target: T3, Renin (Homo sapiens, UniProt P00797); assay: Inhibition against purified human renin
T3 sequence (P00797 whole entry): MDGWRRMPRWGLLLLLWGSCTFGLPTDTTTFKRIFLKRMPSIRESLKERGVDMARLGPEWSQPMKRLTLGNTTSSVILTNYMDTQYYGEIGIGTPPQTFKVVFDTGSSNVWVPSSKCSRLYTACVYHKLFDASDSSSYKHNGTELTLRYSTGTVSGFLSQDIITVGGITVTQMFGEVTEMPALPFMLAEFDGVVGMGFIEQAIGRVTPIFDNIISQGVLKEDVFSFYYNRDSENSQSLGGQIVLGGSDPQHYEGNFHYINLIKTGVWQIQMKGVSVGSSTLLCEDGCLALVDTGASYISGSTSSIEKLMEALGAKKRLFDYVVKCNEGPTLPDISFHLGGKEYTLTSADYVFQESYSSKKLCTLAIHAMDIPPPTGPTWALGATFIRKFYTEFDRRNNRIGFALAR

[4] = molecular target: T3, Renin; assay: Inhibition against purified human renal renin
[5] = molecular target: Pepsin A (Sus scrofa) (UniProt P00791); assay: Percentage inhibition against pepsin; NI=no inhibition at 1.0x10E-5M
Chain of Pepsin A (Sus scrofa) (P00791 60-385 limits assumed): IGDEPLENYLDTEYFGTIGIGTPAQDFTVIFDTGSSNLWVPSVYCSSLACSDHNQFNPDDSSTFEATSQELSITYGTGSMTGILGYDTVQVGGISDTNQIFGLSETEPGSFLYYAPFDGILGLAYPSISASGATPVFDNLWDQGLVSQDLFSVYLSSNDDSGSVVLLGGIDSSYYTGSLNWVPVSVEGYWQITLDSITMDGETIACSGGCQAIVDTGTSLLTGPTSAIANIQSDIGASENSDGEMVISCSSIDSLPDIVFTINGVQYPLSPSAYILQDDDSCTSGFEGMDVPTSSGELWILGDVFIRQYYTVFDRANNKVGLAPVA

[6] = molecular target: T3, Renin; assay: Inhibition against human plasma renin; format: cell-free
[7] = molecular target: T2, Renin (Rattus norvegicus); assay: Percentage inhibition against rat plasma renin at 1.0x10E-5M; format: cell-free
[8] = molecular target: T4, Cathepsin D (Bos taurus, UniProt P80209); assay: Inhibition against cathepsin D
T4 sequence (P80209 whole entry): T1 sequence (whole entry)

[9] = molecular target: T5, Renin (Rattus norvegicus, UniProt P08424); assay: Inhibition against rat plasma renin.; format: cell-free
T5 sequence (P08424 whole entry): T2 sequence (whole entry)

[10] = molecular target: T5, Renin; assay: Inhibition against rat plasma renin; format: cell-free

inhibition [1] [%] | pIC50 [3] | pIC50 [4] | inhibition [5] | pIC50 [6] | inhibition [7] [%] | pIC50 [8] | pIC50 [9] | SMILES | other results
0 |  |  |  |  |  |  |  | CCS(=O)(=O)CC[C@H](O)[C@H](CC1CCCCC1)NC(=O)[C@H](Cc1c[nH]cn1)NC(=O)[C@H](Cc1ccccc1)NC(=O)OC(C)(C)C | inhibition [2]: 0%
 | 5.62 |  |  |  |  |  |  | CC(C)CCS(=O)(=O)CC[C@H](O)[C@H](CC(C)C)NC(=O)[C@H](C)NC(=O)[C@H](Cc1ccccc1)NC(=O)OC(C)(C)C | 
0 |  | 8.04 | No inhibition | 7.39 | 0 | < 5.00 | < 5.00 | COc1ccc(C[C@H](NC(=O)OC(C)(C)C)C(=O)N[C@@H](Cc2c[nH]cn2)C(=O)N[C@@H](CC2CCCCC2)[C@@H](O)CCS(=O)(=O)C(C)C)cc1 | 
 |  | 8.00 |  | 7.64 |  | < 5.00 | < 5.00 | CCOC(=O)N[C@@H](Cc1ccccc1)C(=O)N[C@@H](Cc1cnc[nH]1)C(=O)N[C@@H](CC1CCCCC1)[C@@H](O)CCS(=O)(=O)C(C)C | 
 | 5.38 |  |  |  |  |  |  | CC(C)C[C@H](NC(=O)[C@H](C)NC(=O)[C@H](Cc1ccccc1)NC(=O)OC(C)(C)C)[C@@H](O)CCSCCc1ccccc1 | 
 | 5.62 |  |  |  |  |  |  | CC(C)CCC(=O)CC[C@H](O)[C@H](CC(C)C)NC(=O)[C@H](C)NC(=O)[C@H](Cc1ccccc1)NC(=O)OC(C)(C)C | 
0 |  | 8.22 | No inhibition | 7.72 | 30 | < 5.00 | < 5.00 | CC(C)S(=O)(=O)CC[C@H](O)[C@H](CC1CCCCC1)NC(=O)[C@H](Cc1c[nH]cn1)NC(=O)[C@H](Cc1ccccc1)NC(=O)CC(C)(C)C | 
 | 5.80 |  |  |  |  |  |  | CC(C)C[C@H](NC(=O)[C@H](C)NC(=O)[C@H](Cc1ccccc1)NC(=O)OC(C)(C)C)[C@@H](O)CCS(=O)(=O)C(C)C | 
 |  |  |  | 9.15 |  |  |  | CC[C@H](C)[C@H](NC(=O)[C@@H](NC(O)[C@H](CC(C)C)NC(=O)[C@H](Cc1c[nH]cn1)NC(=O)[C@H](Cc1ccccc1)NC(=O)[C@@H]1CCCN1C(=O)[C@H](Cc1c[nH]cn1)NC(=O)OC(C)(C)C)C(C)C)C(=O)N[C@@H](Cc1c[nH]cn1)C(=O)O (some centres not stated) | 
 | 5.39 |  |  |  |  |  |  | CC(C)CSCC[C@H](O)[C@H](CC(C)C)NC(=O)[C@H](C)NC(=O)[C@H](Cc1ccccc1)NC(=O)OC(C)(C)C | 
 | 5.74 |  |  |  |  |  |  | CC(C)C[C@H](NC(=O)[C@H](C)NC(=O)[C@H](Cc1ccccc1)NC(=O)OC(C)(C)C)[C@@H](O)CCS(=O)(=O)CCc1ccccc1 | 
22 |  | 7.12 | No inhibition | 6.07 | 12 | < 5.00 | < 5.00 | CC(C)S(=O)(=O)CC[C@H](O)[C@H](CC1CCCCC1)NC(=O)[C@H](C)NC(=O)[C@H](Cc1ccccc1)NC(=O)OC(C)(C)C | 
0 |  |  | No inhibition |  | 12 |  |  | CCOC(=O)N[C@@H](Cc1ccccc1)C(=O)N[C@@H](Cc1c[nH]cn1)C(=O)N[C@@H](CC1CCCCC1)[C@@H](O)CCS(=O)(=O)C(C)C | 
 | 5.26 |  |  |  |  |  |  | CC(C)CCSCC[C@H](O)[C@H](CC(C)C)NC(=O)[C@H](C)NC(=O)[C@H](Cc1ccccc1)NC(=O)OC(C)(C)C | 
 | 8.12 |  |  | 7.55 |  | < 5.00 |  | CCS(=O)(=O)CC[C@H](O)[C@H](CC1CCCCC1)NC(=O)[C@H](Cc1cnc[nH]1)NC(=O)[C@H](Cc1ccccc1)NC(=O)OC(C)(C)C | pIC50 [10]: < 5.00
0 |  | 7.70 | No inhibition | 6.47 | 26 | < 5.00 | < 5.00 | CC(C)S(=O)(=O)CC[C@H](O)[C@H](CC1CCCCC1)NC(=O)[C@H](Cc1ccccc1)NC(=O)[C@H](Cc1ccccc1)NC(=O)OC(C)(C)C | 
 | 5.42 |  |  |  |  |  |  | CC(C)CCC(O)CC[C@H](O)[C@H](CC(C)C)NC(=O)[C@H](C)NC(=O)[C@H](Cc1ccccc1)NC(=O)OC(C)(C)C (some centres not stated) | 
0 | 8.12 |  |  | 7.57 |  | 5.00 |  | CC(C)S(=O)(=O)CC[C@H](O)[C@H](CC1CCCCC1)NC(=O)[C@H](Cc1c[nH]cn1)NC(=O)[C@H](Cc1ccccc1)NC(=O)OC(C)(C)C | inhibition [2]: 11%; pIC50 [10]: 5.00
 | 5.32 |  |  |  |  |  |  | CC(C)C[C@H](NC(=O)[C@H](C)NC(=O)[C@H](Cc1ccccc1)NC(=O)OC(C)(C)C)[C@@H](O)CCSC(C)C | 
 | 5.28 |  |  |  |  |  |  | CC(C)CC[S+]([O-])CC[C@H](O)[C@H](CC(C)C)NC(=O)[C@H](C)NC(=O)[C@H](Cc1ccccc1)NC(=O)OC(C)(C)C (some centres not stated) | 
 |  | 7.85 | No inhibition | 7.11 | 18 | 5.10 | < 5.00 | CC(C)C[C@H](NC(=O)[C@H](Cc1ccccc1)NC(=O)OC(C)(C)C)C(=O)N[C@@H](CC1CCCCC1)[C@@H](O)CCS(=O)(=O)C(C)C | 
 | 5.49 |  |  |  |  |  |  | CC(C)C[C@H](NC(=O)[C@H](C)NC(=O)[C@H](Cc1ccccc1)NC(=O)OC(C)(C)C)[C@@H](O)CCS(=O)(=O)CC(C)C | 
18 |  | 6.85 | No inhibition | 6.00 | 2 | < 5.00 | < 5.00 | CCS(=O)(=O)CC[C@H](O)[C@H](CC1CCCCC1)NC(=O)[C@H](C)NC(=O)[C@H](Cc1ccccc1)NC(=O)OC(C)(C)C | 
